Data from patent publication US20230348437A1, “COMPOUNDS, COMPOSITIONS AND METHODS” (Denali Therapeutics Inc., priority 2020, published 2023).

These compounds were tested on NLRP3 (IL-1β secretion from THP-1 cells) (assay: IL-1β secretion assay in 384-well plates, PMA differentiated THP-1 cells, LPS and nigericin stimulation). Conditions: Homo sapiens; THP-1 cells, PMA 5 ng/mL, LPS 25 ng/mL, nigericin, IL-1β ELISA, 384-well; read-out: Activity.
Assay type: cell-based
Procedure: Compounds as provided herein were tested in the following assay. […] Freezing medium was made up of 90% FBS and 10% DMSO. THP-1 cells were removed from the liquid nitrogen and placed into a 37° C. water bath to thaw, until signs of ice dissipated. The cells were then added to 9 mL of warm cell culture medium and centrifuged for 5 minutes at 1000 rpm. The supernatant was discarded, and the cells were resuspended in new cell culture medium. The THP-1 cells were then split and cultured in the cell culture medium, being passaged every 2-3 days (5×10^5 cells/mL passaged every two days, 3×10^5 cells/mL passaged every three days). Cell density was maintained between 5×10^5-1.5×10^6 viable cells/mL.
PMA was dissolved in DMSO to make a stock solution at 5 mg/mL and stored in 10 µl aliquots at -20° C. for single use. PMA is added to normal growth medium. LPS was diluted with 1 mL of water solution to provide a 1 mg/mL stock solution and stored in 15 µl aliquots at -20° C. for single use. Nigericin is diluted in ice cold 100% ethanol to 5 mg/mL (6.7 mM) and stored in 75 µL aliquots at -20° C. for single use. […] The two control conditions used to qualify and normalize test compound dose-response curves were as follows: High Control = 25 ng/mL LPS, 5 µM Nigericin, 0.5% DMSO, Low Control = 25 ng/mL, LPS, 0.5% DMSO.
THP-1 cells were diluted to provide a suspension at a concentration of 1.0×10^6 cells/mL with the total volume of suspension required to enable the desired number of assay plates. The growth media was supplemented with PMA (5 ng/mL final concentration) and the cells were incubated at 37° C. under a humidified atmosphere of 5% CO2 for 40 h.
All media was carefully aspirated from each culture flask. The cells were washed carefully with 1x DPBS. The cells were then briefly digested with trypsin LE for 5 minutes at 23° C. and immediately resuspended in cell growth media. After resuspension, the cells were centrifuged at 1000 rpm for 3 minutes and the supernatant was discarded. The cells were resuspended in DPBS and once again centrifuged at 1000 rpm for 5 minutes. The supernatant was discarded and the cell pellet was resuspended in serum-free media supplemented with LPS (25 ng/mL final concentration) to enable the distribution of 30 K THP-1 cells within 45 µL of media into each well of 384-well PDL-coated plates. The 384-well plates were then incubated at 37° C. under a humidified atmosphere of 5% CO2 for 2 h. Following this period, test compounds were dispensed by Tecan across the desired concentration range with all wells normalized to a final 0.5 % DMSO concentration. The plates were then incubated at 37° C. under a humidified atmosphere of 5% CO2 for 1 h. Following this period, 5 µL of the […] nigericin stock solution was added to each of the appropriate wells and plates were centrifuged at 1000 rpm for 30 seconds. The plates were the immediately reintroduced to the incubator at 37° C. under a humidified atmosphere of 5% CO2 for 2 h. After this time, 35 µL/well of supernatant was collected and transferred into v-bottom plate and centrifuged at 1000 rpm for 1 minute. These supernatant aliquots were analyzed using an IL-Iβ detection kit as described below. If needed, the test samples could be snap frozen and stored at -80° C. until analyzed.
To prepare each ELISA plate, capture antibody (mAb Mt175) was diluted with PBS to a final concentration of 2 µg/mL and then 20 µL of this solution was added to each well of the ELISA plate. Each plate was allowed to incubate overnight at 4° C. The next day, the capture antibody solution was removed and discarded. […] Each ELISA plate was then allowed to incubate for 1 hour at 23° C. After this time, the blocking buffer was removed and discarded. Each ELISA plate was washed 4 times with PBST. During this time, the v-bottomed plates containing the supernatant aliquots from the assay run were centrifuged at 300 g for 5 minutes before transferring 15 µL/well of the supernatant sample to each ELISA plate. […]

Row | Structure (SMILES) | IC50 [nM]
1 | CC(C)c1nn(CC(=O)N[C@H]2C[C@@](C)(O)C2)c(=O)cc1-c1cc(F)ccc1F [Example 24, 2-[4-(2,5-difluorophenyl)-6-oxo-3-propan-2-ylpyridazin-1-yl]-N-(cis-3-hydroxy-3-methylcyclobutyl)acetamide] | 1900
2 | CCN1CCC[C@@H](NC(=O)Cn2nc(C3CCC3)c(-c3cccc(F)c3)cc2=O)C1 [Example 40, 2-[3-cyclobutyl-4-(3-fluorophenyl)-6-oxopyridazin-1-yl]-N-[(3R)-1-ethylpiperidin-3-yl]acetamide] | 1440
3 | CC(C)c1nn(CC(=O)N[C@H]2C[C@@](C)(O)C2)c(=O)cc1-c1cccc(C2CC2)c1 [Example 27, 2-[4-(3-cyclopropylphenyl)-6-oxo-3-propan-2-ylpyridazin-1-yl]-N-(cis-3-hydroxy-3-methylcyclobutyl)acetamide] | 1910
4 | CCOc1cccc(-c2cc(=O)n(CC(=O)N[C@H]3C[C@@](C)(O)C3)nc2C(C)C)c1 [Example 28, 2-[4-(3-ethoxyphenyl)-6-oxo-3-propan-2-ylpyridazin-1-yl]-N-(cis-3-hydroxy-3-methylcyclobutyl)acetamide] | 8470
5 | O=C(Cn1nc(C2CC2)c(-c2cc(F)cc(F)c2)cc1=O)Nc1ncncc1F [Example 48, 2-[3-cyclopropyl-4-(3,5-difluorophenyl)-6-oxopyridazin-1-yl]-N-(5-fluoropyrimidin-4-yl)acetamide] | 1640
6 | CC(CF)c1nn(CC(=O)Nc2ncc(F)cn2)c(=O)cc1-c1cc(F)cc(F)c1 (centres unmarked) [Example 55, 2-[4-(3,5-difluorophenyl)-3-(1-fluoropropan-2-yl)-6-oxopyridazin-1-yl]-N-(5-fluoropyrimidin-2-yl)acetamide] | 1060
7 | CC(C)c1nn(CC(=O)Nc2ncc(F)cc2F)c(=O)cc1-c1cc(F)cc(F)c1 [Example 45] | 596
8 | CC(C)c1nn(CC(=O)Nc2ncc(F)cn2)c(=O)cc1-c1cc(F)cc(F)c1 [Example 44] | 236
9 | O=C(Cn1nc(C2CC2(F)F)c(-c2cc(F)cc(F)c2)cc1=O)Nc1ncncc1F (centres unmarked) [Example 49, 2-[3-(2,2-difluorocyclopropyl)-4-(3,5-difluorophenyl)-6-oxopyridazin-1-yl]-N-(5-fluoropyrimidin-4-yl)acetamide] | 3240
10 | CCN1CCC[C@@H](NC(=O)Cn2nc(C(C)C)c(-c3cccc(C4CCC4)c3)cc2=O)C1 [Example 31, 2-[4-(3-cyclobutylphenyl)-6-oxo-3-propan-2-ylpyridazin-1-yl]-N-[(3R)-1-ethylpiperidin-3-yl]acetamide] | 6980
11 | Cc1ccccc1-c1cc(=O)n(CC(=O)N[C@H]2C[C@@](C)(O)C2)nc1C(C)C [Example 26] | 6660
12 | CC(C)c1nn(CC(=O)N[C@@H]2CCCN(C3CC3)C2)c(=O)cc1-c1cccc(F)c1 [Example 39, N-[(3R)-1-cyclopropylpiperidin-3-yl]-2-[4-(3-fluorophenyl)-6-oxo-3-propan-2-ylpyridazin-1-yl]acetamide] | 490
13 | CC(C)c1nn(CC(=O)N[C@H]2C[C@@](C)(O)C2)c(=O)cc1-c1cc(F)cc(F)c1 [Example 21, 2-[4-(3,5-difluorophenyl)-6-oxo-3-propan-2-ylpyridazin-1-yl]-N-(cis-3-hydroxy-3-methylcyclobutyl)acetamide] | 902
14 | O=C(Cn1nc(CC(F)(F)F)c(-c2cc(F)cc(F)c2)cc1=O)Nc1ncncc1F [Example 50, 2-[4-(3,5-difluorophenyl)-6-oxo-3-(2,2,2-trifluoroethyl)pyridazin-1-yl]-N-(5-fluoropyrimidin-4-yl)acetamide] | 1640
15 | CC(C)c1nn(CC(=O)Nc2ncc(F)cn2)c(=O)cc1-c1cncc(F)c1 [Example 54, 2-[4-(5-fluoropyridin-3-yl)-6-oxo-3-propan-2-ylpyridazin-1-yl]-N-(5-fluoropyrimidin-2-yl)acetamide] | 6980
16 | O=C(Cn1nc(C2CCC2)c(-c2cc(F)cc(F)c2)cc1=O)Nc1ncc(F)cn1 [Example 56, 2-[3-cyclobutyl-4-(3,5-difluorophenyl)-6-oxopyridazin-1-yl]-N-(5-fluoropyrimidin-2-yl)acetamide] | 713
17 | CC(C)c1nn(C2(C(=O)Nc3ncccn3)CC2)c(=O)cc1-c1cc(F)cc(F)c1 [Example 51, 1-[4-(3,5-difluorophenyl)-3-isopropyl-6-oxo-pyridazin-1-yl]-N-pyrimidin-2-yl-cyclopropanecarboxamide] | 1140
18 | CC(C)c1nn(CC(=O)Nc2ncncc2F)c(=O)cc1-c1cc(F)cc(F)c1 [Example 42, 2-[4-(3,5-difluorophenyl)-6-oxo-3-propan-2-ylpyridazin-1-yl]-N-(5-fluoropyrimidin-4-yl)acetamide] | 320
19 | CCOc1nn(CC(=O)N[C@H]2C[C@@](C)(O)C2)c(=O)cc1-c1ccccc1 [Example 34] | 29500
20 | O=C(Cn1nc(C(F)F)c(-c2cc(F)cc(F)c2)cc1=O)Nc1ncc(F)cn1 [Example 53, 2-[3-(difluoromethyl)-4-(3,5-difluorophenyl)-6-oxopyridazin-1-yl]-N-(5-fluoropyrimidin-2-yl)acetamide] | 2770
21 | CCN1CCC[C@@H](NC(=O)Cn2nc(C(C)C)c(-c3cc(F)cc(C4CC4)c3)cc2=O)C1 [Example 30, 2-[4-(3-cyclopropyl-5-fluorophenyl)-6-oxo-3-propan-2-ylpyridazin-1-yl]-N-[(3R)-1-ethylpiperidin-3-yl]acetamide] | 1300
22 | CC(C)c1nn(CC(=O)Nc2ncncc2F)c(=O)cc1-c1cccc2ccncc12 [Example 33] | 3210
23 | CC(C)c1nn(CC(=O)Nc2ncncc2F)c(=O)cc1-c1cc(F)cc(C2CC2(F)F)c1 (centres unmarked) [Example 47, 2-[4-[3-(2,2-difluorocyclopropyl)-5-fluorophenyl]-6-oxo-3-propan-2-ylpyridazin-1-yl]-N-(5-fluoropyrimidin-4-yl)acetamide] | 8450
24 | CCN1CCC[C@@H](NC(=O)Cn2nc(C(C)C)c(-c3cccc4ccccc34)cc2=O)C1 [Example 29] | 874
25 | CC(C)c1nn(CC(=O)Nc2ncncc2F)c(=O)c(C(F)F)c1-c1cccc(F)c1 [Example 37, 2-[5-(difluoromethyl)-4-(3-fluorophenyl)-6-oxo-3-propan-2-ylpyridazin-1-yl]-N-(5-fluoropyrimidin-4-yl)acetamide] | 30100
26 | Cc1cccc(-c2cc(=O)n(CC(=O)N[C@H]3C[C@@](C)(O)C3)nc2C(C)C)c1F [Example 22, 2-[4-(2-fluoro-3-methylphenyl)-6-oxo-3-propan-2-ylpyridazin-1-yl]-N-(cis-3-hydroxy-3-methylcyclobutyl)acetamide] | 1570
27 | CC(C)c1nn(CC(=O)Nc2ncccc2F)c(=O)cc1-c1cccc(F)c1 [Example 41, 2-[4-(3-fluorophenyl)-6-oxo-3-propan-2-ylpyridazin-1-yl]-N-(3-fluoropyridin-2-yl)acetamide] | 7210
28 | Cc1c(-c2cccc(F)c2)c(C(C)C)nn(CC(=O)Nc2ncncc2F)c1=O [Example 36, 2-[4-(3-fluorophenyl)-5-methyl-6-oxo-3-propan-2-ylpyridazin-1-yl]-N-(5-fluoropyrimidin-4-yl)acetamide] | 1000
29 | CCc1c(-c2cccc(F)c2)c(C(C)C)nn(CC(=O)Nc2ncncc2F)c1=O [Example 35, 2-[5-ethyl-4-(3-fluorophenyl)-6-oxo-3-propan-2-ylpyridazin-1-yl]-N-(5-fluoropyrimidin-4-yl)acetamide] | 35300
